Test: xn = mol fraction of the nth substance listed
Conditions: 101 kPa

CO + CCCC[n+]1ccc(C)cc1.F[B-](F)(F)F
x1 = 1
Conditions	viscosity [mPa·s]
313.15 K	0.436
323.15 K	0.383

CCCC[n+]1ccc(C)cc1.F[B-](F)(F)F + CO
viscosity [mPa·s]
Conditions	298.15 K	313.15 K	323.15 K
x1 = 0.0151	0.621	0.507	–
x2 = 0	–	81	50.2
x2 = 0.4287	–	–	9.2
x2 = 0.5246	–	7.58	5.92
x2 = 0.5678	9.3	6.31	4.95
x2 = 0.718	4.19	–	2.5
x2 = 0.8313	2.02	1.54	–
x2 = 0.8803	1.46	–	–
x2 = 0.9154	1.11	0.877	0.763
x2 = 0.9452	0.868	0.696	0.611
x2 = 0.9671	–	0.586	0.519
x2 = 0.9775	0.669	0.544	0.476

From a compilation of properties of binary mixtures
